Consider 14 molecules from PubChem BioAssay (NCI).

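48-hour exposure; five concentrations; linearly interpolated endpoints. Here, GI50 denotes the concentration required for 50% inhibition of growth. TGI is the concentration that stops growth completely.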

Among the test systems are DMS 114 small cell lung; DMS 273 small cell lung; HOP-18 NSCLC; LXFL 529 NSCLC; M19-MEL melanoma; RXF-631 renal; SNB-78 CNS; XF 498 CNS; P388 leukemia; P388/ADR leukemia; SN12K1 renal.
Common to all, as to assay: NCI tumour cell line growth inhibition, 48 h

Turning to `O=C1OC(c2ccccc2)=N/C1=C/N1CCCC1C(=O)O` (stereo unspecified), the TGI in the experiment with DMS 114 small cell lung, in the experiment with DMS 273 small cell lung, with HOP-18 NSCLC, with LXFL 529 NSCLC, in the experiment with M19-MEL melanoma and with RXF-631 renal was over 100 µM in each case. The TGI with SNB-78 CNS and in the experiment with XF 498 CNS was over 100 µM throughout.
On to `CN(CCN(C)C(=O)CCn1ccc(=O)[nH]c1=O)C(=O)CCn1ccc(=O)[nH]c1=O`, for which the TGI in the experiment on DMS 114 small cell lung, in the experiment on DMS 273 small cell lung, in the experiment with LXFL 529 NSCLC, in the experiment with M19-MEL melanoma, in the experiment with SNB-78 CNS and in the experiment with XF 498 CNS was over 100 µM each time.
Turning to `COc1ccc(N2C(=O)C(N3C(=O)C=CC3=O)C2C=O)cc1` (stereo unspecified), the TGI with DMS 273 small cell lung, with HOP-18 NSCLC, with LXFL 529 NSCLC, in the experiment with M19-MEL melanoma and in the experiment with SNB-78 CNS was over 100 µM throughout.
For `CCOC(=O)C[n+]1ccc2c([nH]c3cc(OC)ccc32)c1C`, the TGI with DMS 114 small cell lung, in the experiment on DMS 273 small cell lung, in the experiment with HOP-18 NSCLC, in the experiment on M19-MEL melanoma, in the experiment with P388 leukemia and in the experiment with P388/ADR leukemia was over 100 µM throughout. Also, the TGI in the experiment with SN12K1 renal, with SNB-78 CNS and with XF 498 CNS was over 100 µM throughout.
With `CCCCCCc1cn([C@H]2C[C@H](O)[C@@H](CO)O2)c(=O)[nH]c1=O`, the TGI in the experiment on DMS 114 small cell lung, in the experiment on DMS 273 small cell lung, in the experiment on HOP-18 NSCLC, in the experiment with M19-MEL melanoma, with P388 leukemia and with P388/ADR leukemia was over 100 µM each time. Besides, the TGI in the experiment with SN12K1 renal, with SNB-78 CNS and with XF 498 CNS was over 100 µM each time.
Turning to `COc1cc(C2(C)SCCCS2)c(I)c(OC)c1OC`, the TGI in the experiment on DMS 114 small cell lung, in the experiment with DMS 273 small cell lung, in the experiment on HOP-18 NSCLC, in the experiment on LXFL 529 NSCLC, with M19-MEL melanoma and with RXF-631 renal was over 100 µM throughout. The TGI in the experiment on SNB-78 CNS and with XF 498 CNS was over 100 µM throughout.
Take `NC1CCCCC1N.O=S(=O)([O-])CCCN1CCN(CCO)CC1.O=S(=O)([O-])CCCN1CCN(CCO)CC1.[Pt+4]`: the GI50 in the experiment with DMS 273 small cell lung is 1.24 µM; in the experiment on HOP-18 NSCLC, 21.6 µM; in the experiment on M19-MEL melanoma, 1.18 µM; with P388 leukemia it was 0.129 µM; in the experiment with P388/ADR leukemia it was 2.56 µM; with SN12K1 renal, 3.29 µM. Also, the GI50 in the experiment with SNB-78 CNS was 15.8 µM; with XF 498 CNS it was 1.25 µM. The TGI is 19.9 µM in the experiment with DMS 273 small cell lung; over 100 µM in the experiment with HOP-18 NSCLC; 16.2 µM in the experiment on M19-MEL melanoma; over 32 µM in the experiment with P388 leukemia; over 47.7 µM in the experiment with P388/ADR leukemia; over 100 µM with SN12K1 renal. Also, the TGI in the experiment with SNB-78 CNS is over 86.4 µM; with XF 498 CNS, 24.6 µM.
As to `CC1(C)N=C(N)N=C(N)N1c1ccc(OCCCOc2ccccc2)c(Cl)c1`, the TGI with DMS 114 small cell lung is 14.3 µM; in the experiment with DMS 273 small cell lung, 1.15 µM; with HOP-18 NSCLC, 17.6 µM; in the experiment with M19-MEL melanoma it was 15 µM; in the experiment on P388 leukemia, 10.3 µM; with P388/ADR leukemia it was over 100 µM. For the same molecule, the TGI was found to be 11.2 µM in the experiment on SN12K1 renal and 18 µM with SNB-78 CNS.
For `c1ccc(-c2[nH]c(-c3ccccc3)c(-c3cnccn3)c2-c2cnccn2)cc1`, the TGI in the experiment with DMS 114 small cell lung, in the experiment with DMS 273 small cell lung, with HOP-18 NSCLC, with M19-MEL melanoma, in the experiment on SNB-78 CNS and with XF 498 CNS was over 100 µM in each case.
With `O=C1OC2C=CC1C1(CCOC1=O)C2` (stereo unspecified), the TGI in the experiment on DMS 114 small cell lung, with DMS 273 small cell lung, with HOP-18 NSCLC, in the experiment with LXFL 529 NSCLC, in the experiment with M19-MEL melanoma and with XF 498 CNS was over 100 µM each time.
Regarding `CC(=O)O[C@H]1C(=O)[C@@]2(C)C(C(OC(=O)c3ccccc3)[C@]3(O)CC(OC(=O)C(O)C(NC(=O)c4ccccc4)c4ccc(C)cc4)C(C)=C1C3(C)C)[C@]1(OC(C)=O)CO[C@@H]1C[C@@H]2O` (stereo partly specified), the TGI was 0.168 µM in the experiment on DMS 114 small cell lung; 2.89 µM with DMS 273 small cell lung; 23.6 µM in the experiment with HOP-18 NSCLC; 11.1 µM in the experiment on LXFL 529 NSCLC; 3.57 µM in the experiment on M19-MEL melanoma; over 25 µM with SNB-78 CNS. This molecule also had a TGI with XF 498 CNS of 0.134 µM.
As to `Nc1ccc(-c2nc3ccccc3s2)cc1`, the TGI in the experiment on DMS 114 small cell lung was 39.1 µM; in the experiment on HOP-18 NSCLC, over 100 µM; in the experiment with LXFL 529 NSCLC, 33.4 µM; in the experiment with M19-MEL melanoma, over 100 µM; with RXF-631 renal, 46.2 µM; with SNB-78 CNS, 98.2 µM.
With `CC(=O)Nc1ccc(/C=C(\NC(=O)c2ccccc2)C(=O)NNS(=O)(=O)c2ccc(C)cc2)cc1`, the TGI in the experiment with DMS 273 small cell lung is 34.8 µM; in the experiment on HOP-18 NSCLC, over 100 µM; in the experiment on LXFL 529 NSCLC it was over 100 µM; in the experiment with M19-MEL melanoma, over 100 µM; in the experiment on SNB-78 CNS, over 100 µM; in the experiment with XF 498 CNS, over 100 µM.
`COc1cccc2c1[C@]1(O)C(O)CCCC21` (stereo partly specified): the TGI in the experiment with DMS 114 small cell lung, in the experiment on DMS 273 small cell lung, with HOP-18 NSCLC, in the experiment with LXFL 529 NSCLC, in the experiment on M19-MEL melanoma and in the experiment on SNB-78 CNS was over 100 µM throughout.
